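Method: 48-hour compound exposure of cells in 96-well plates, five concentrations, linear interpolation of endpoints. At the GI50, growth is halved.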 Active and inactive are the calls of the source. Rule as the data show it: active = GI50 up to about 1.1 µM and inactive = higher.
Key:
Assay in all cases: NCI tumour cell line growth inhibition, 48 h
OVCAR-3 = tested on: OVCAR-3
RPMI-8226 = tested on: RPMI-8226
U-251 = tested on: U-251
UACC-257 = tested on: UACC-257
M14 = tested on: M14
NCI-H522 = tested on: NCI-H522
K562 = tested on: K562
NCI-H460 = tested on: NCI-H460
KM12 = tested on: KM12
MOLT-4 = tested on: MOLT-4
SK-MEL-28 = tested on: SK-MEL-28
A549 = tested on: A549
SNB-19 = tested on: SNB-19
NCI-H226 = tested on: NCI-H226
IGROV-1 = tested on: IGROV-1
SK-OV-3 = tested on: SK-OV-3
HOP-92 = tested on: HOP-92
SR = tested on: SR

Row | SMILES | GI50 (OVCAR-3) | GI50 (RPMI-8226) | GI50 (U-251) | GI50 (UACC-257) | GI50 (M14) | GI50 (NCI-H522) | GI50 (K562) | GI50 (NCI-H460) | GI50 (KM12) | GI50 (MOLT-4) | GI50 (SK-MEL-28) | GI50 (A549) | GI50 (SNB-19) | GI50 (NCI-H226) | GI50 (IGROV-1) | GI50 (SK-OV-3) | GI50 (HOP-92) | GI50 (SR)
1 | COc1ccc(C[C@@H]2Cc3cc(OC)c(OC)cc3CN2C)cc1 | > 100 µM (inactive) | > 100 µM (inactive) | > 100 µM (inactive) | > 100 µM (inactive) | > 100 µM (inactive) | > 100 µM (inactive) | > 100 µM (inactive) | > 100 µM (inactive) | > 100 µM (inactive) | > 100 µM (inactive) | > 100 µM (inactive) | > 100 µM (inactive) | > 100 µM (inactive) | – | – | – | – | –
2 | O=S(=O)(OI(OI(OS(=O)(=O)C(F)(F)F)c1ccccc1)c1ccccc1)C(F)(F)F | 93.3 µM (inactive) | 11.6 µM (inactive) | > 100 µM (inactive) | – | 43 µM (inactive) | 23.2 µM (inactive) | 6.43 µM (inactive) | 39.5 µM (inactive) | 28.2 µM (inactive) | 20.2 µM (inactive) | – | 46.8 µM (inactive) | 44.3 µM (inactive) | 58.6 µM (inactive) | 55.8 µM (inactive) | – | – | –
3 | Cc1ccc(C2=CC(=O)c3ccccc3C2=O)n1-c1ccccc1 | 87.1 µM (inactive) | 36.7 µM (inactive) | 46.7 µM (inactive) | – | > 100 µM (inactive) | > 100 µM (inactive) | 53 µM (inactive) | 48 µM (inactive) | 43.1 µM (inactive) | 26.1 µM (inactive) | > 100 µM (inactive) | > 100 µM (inactive) | 35.6 µM (inactive) | 7.67 µM (inactive) | > 100 µM (inactive) | > 100 µM (inactive) | – | –
4 | COC(=O)/C(C#N)=C1\CCC(C(=O)OC)N1C (stereo unspecified) | > 100 µM (inactive) | > 100 µM (inactive) | > 100 µM (inactive) | > 100 µM (inactive) | > 100 µM (inactive) | > 100 µM (inactive) | > 100 µM (inactive) | > 100 µM (inactive) | > 100 µM (inactive) | > 100 µM (inactive) | > 100 µM (inactive) | > 100 µM (inactive) | > 100 µM (inactive) | – | > 100 µM (inactive) | > 100 µM (inactive) | > 100 µM (inactive) | > 100 µM (inactive)
5 | CC(/C(=N/NC(=O)C(N)=O)c1c(Cl)ccc(Cl)c1O)C1(O)C(=O)Nc2ccccc21 (stereo unspecified) | 28.6 µM (inactive) | – | 50.1 µM (inactive) | 53.3 µM (inactive) | 68.7 µM (inactive) | 19.2 µM (inactive) | 31 µM (inactive) | 28.3 µM (inactive) | 30.4 µM (inactive) | – | > 100 µM (inactive) | 50.2 µM (inactive) | 72.4 µM (inactive) | 29.3 µM (inactive) | 29.9 µM (inactive) | > 100 µM (inactive) | 27.8 µM (inactive) | –
6 | O=c1c2cc(Br)ccc2nc(-c2ccccc2Cl)n1NCC1(O)OCC(O)C(O)C1O (stereo unspecified) | 76.2 µM (inactive) | 99.1 µM (inactive) | > 100 µM (inactive) | > 100 µM (inactive) | > 100 µM (inactive) | > 100 µM (inactive) | > 100 µM (inactive) | > 100 µM (inactive) | > 100 µM (inactive) | 57.1 µM (inactive) | > 100 µM (inactive) | > 100 µM (inactive) | > 100 µM (inactive) | 0.434 µM (active) | – | > 100 µM (inactive) | – | 35.6 µM (inactive)
7 | Cc1cccc(N2C(=O)C(=O)C(c3nc4ccccc4s3)/C(=N/NC(=S)NN)C2=O)c1C (stereo unspecified) | > 100 µM (inactive) | > 100 µM (inactive) | > 100 µM (inactive) | > 100 µM (inactive) | > 100 µM (inactive) | > 100 µM (inactive) | > 100 µM (inactive) | > 100 µM (inactive) | > 100 µM (inactive) | 90.6 µM (inactive) | > 100 µM (inactive) | – | > 100 µM (inactive) | > 100 µM (inactive) | > 100 µM (inactive) | > 100 µM (inactive) | > 100 µM (inactive) | –
8 | COc1cc(OC)c(C2CC=Cc3c(OC)cc(OC)c(OC)c32)cc1OC (stereo unspecified) | > 100 µM (inactive) | > 100 µM (inactive) | > 100 µM (inactive) | > 100 µM (inactive) | > 100 µM (inactive) | – | > 100 µM (inactive) | > 100 µM (inactive) | > 100 µM (inactive) | > 100 µM (inactive) | > 100 µM (inactive) | > 100 µM (inactive) | – | > 100 µM (inactive) | > 100 µM (inactive) | > 100 µM (inactive) | > 100 µM (inactive) | > 100 µM (inactive)
9 | COc1c(C(=O)c2ccc([N+](=O)[O-])cc2)cc(C(C)(C)C)cc1C(C)(C)C | – | 12.6 µM (inactive) | 19.1 µM (inactive) | 22.9 µM (inactive) | 22.9 µM (inactive) | 21.5 µM (inactive) | 25.6 µM (inactive) | 32.4 µM (inactive) | 16.9 µM (inactive) | 16.4 µM (inactive) | 22.8 µM (inactive) | 31 µM (inactive) | 48.5 µM (inactive) | – | 72.4 µM (inactive) | > 100 µM (inactive) | – | 17.1 µM (inactive)

Reference: ChEMBL document CHEMBL1201862, “PubChem BioAssay data set” (2004)
